What was measured:
[1] = system: HSC-3 cells; experiment: Live cell apoptosis assay (caspase 3/7, proliferation); type: cell-based, human; conditions: HSC-3, 24 h; MPMs 5 or 10 µM, cisplatin 10 µM
Method: A black-walled 96-well plate (#6005182, PerkinElmer, Waltham, MA, United States) was coated with 50 µl myogel (0.5 mg/ml) per well. The next day, HSC-3 and UT-SCC-24A cells were stained with CellTrace Far Red (Invitrogen, Carlsbad, CA, USA) by resuspending 500,000 cells in 500 µl PBS and adding 0.5 µl of the dye before incubating the cells at 37°C for 20 min. Next, 2.5 ml of complete media was added to the cells, and they were incubated for another 5 min. The cells were then centrifuged and resuspended in complete media. The media remaining in the wells of the 96-well plate after myogel coating was removed and the cells were seeded with 1,000 cells/well in 100 µl of media. The cells were left to adhere overnight, and the following day, the media was replaced with 100 µl of media containing the Incucyte® caspase-3/7 green dye for apoptosis (Sartorius, Göttingen, Germany) (diluted 1:1,000), as well as 5 or 10 µM of the MPMs or 10 µM cisplatin. Control wells only contained media and the caspase-3/7 green dye. The plate was placed in the Incucyte S3 (Sartorius) and imaged at ×10 magnification every 2 hours for 24 h in total. Each condition had triplicate wells, and four images were taken per well. The experiment was conducted three times. The Incucyte software was used to analyze the area of red fluorescence (proliferation) and number of green and red objects (apoptotic cells).

[2] = system: UT-SCC-24A cells; experiment: MTS viability assay with bafilomycin A1 and z-VAD-FMK; type: cell-based, human; conditions: 24 h, cisplatin 50 µM, MPM-2:0/MPM-6:0 10 µM, MPM-3:2/MPM-4:2 20 µM
Method: HSC-3 and UT-SCC-24A cells were seeded, 10,000 cells/well, in flat bottom 96-well plates and left to adhere overnight. The supernatants were then removed and replaced by 50 µl of complete DMEM/F-12 ± 100 nM BafA1 (#196000, Sigma-Aldrich, St. Louis, MO, United States) or 50 µM z-VAD-FMK (#219007, Sigma-Aldrich). The plate was then incubated for 1 hour before another 50 µl of complete DMEM/F-12 ± 100 nM BafA1 or 50 µM z-VAD-FMK as well as the MPMs or cisplatin was added. The final concentration of cisplatin was 50 µM and for the MPMs it was 5 or 10 µM for MPM-2:0 and MPM-6:0, and 10 or 20 µM for MPM-3:2 and MPM-4:2, for HSC-3 and UT-SCC-24A cells, respectively. 100 μl of media ± 1% Triton X-100 served as […]. The cells were incubated for 24 h before 20 µl of MTS reagent (CellTiter 96® Aqueous One Solution, Promega, Madison, WI, United States) was added to each well. The plate was then incubated for one more hour before absorbance was measured at 490 nm on a VersaMaxTM Microplate reader (Molecular Devices, San Jose, CA, United States). Viability was calculated using the following formula: %=Abs treated sample−Abs positive control/Abs negative control−Abs positive control x 100
At least three independent experiments were performed, with triplicate wells in each experiment.

## N.N.[Cl][Pt][Cl] [Cisplatin, cisplatin, reference compound]
[1]
  activation of caspase 3/7 / apoptosis (in words): only induced apoptosis in a minority of HSC-3 cells
  proliferation (area of red fluorescence, in words): inhibited proliferation in HSC-3 cells
[2]
  viability in the presence of BafA1 (100 nM) or z-VAD-FMK (50 µM) (in words): z-VAD-FMK seemed to have some protective effects against cisplatin for both cell lines, while BafA1 had the opposite effect
